Assays:
Experiment in all cases: combination Emax (second highest fraction inhibited in the dose matrix, 72 h); higher = more inhibition; extreme values may be limits of the assay
[1] = test system: TGBC11TKB (Gastric Carcinoma)
Summary of the method: (§1)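 Cell lines in DMEM/F12 or RPMI with 10% FBS were plated in 1536-well plates, held 24 hours at 37°C, 5% CO2, then given two-drug dose matrices for 72 hours (DMSO typically 0.2%). Viability was read by CellTiter-Glo 2.0 luminescence and scaled as inhibition from 0 (vehicle wells) to 1 (blank wells). Combination Emax is the second-highest inhibition in the matrix; Bliss excess is observed combination effect minus expected EA + EB − EA·EB, EA and EB being single-agent effects.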

[2] = test system: ASH-3 (Thyroid Gland Carcinoma)
Summary of the method: as §1

[3] = test system: GOTO (Neuroblastoma)
Summary of the method: as §1

[4] = test system: NCI-H2347 (Lung Adenocarcinoma)
Summary of the method: as §1

[5] = test system: LOU-NH91 (Squamous Cell Lung Carcinoma)
Summary of the method: as §1

[6] = test system: NH-12 (Neuroblastoma)
Summary of the method: as §1

[7] = test system: JHH-7 (Hepatocellular Carcinoma)
Summary of the method: as §1

[8] = test system: KYSE-150 (Esophageal Squamous Cell Carcinoma)
Summary of the method: as §1

[9] = test system: EMC-BAC-2 (Non-Small Cell Lung Carcinoma)
Summary of the method: as §1

[10] = test system: DG-75 (Burkitt's Lymphoma)
Summary of the method: as §1

[11] = test system: NCI-H513 (Other Solid Carcinomas)
Summary of the method: as §1

[12] = test system: EW-3 (Ewing's Sarcoma)
Summary of the method: as §1

[13] = test system: NCI-N87 (Gastric Carcinoma)
Summary of the method: as §1

[14] = test system: HSC-2 (Oral Cavity Carcinoma)
Summary of the method: as §1

[15] = test system: HC-1 (Other Blood Carcinomas)
Summary of the method: as §1

[16] = test system: KU-19-19 (Bladder Carcinoma)
Summary of the method: as §1

[17] = test system: LC4-1 (B-Lymphoblastic Leukemia)
Summary of the method: as §1

[18] = test system: NCI-H322M (Lung Adenocarcinoma)
Summary of the method: as §1

[19] = test system: NCI-H1573 (Lung Adenocarcinoma)
Summary of the method: as §1

| SMILES | combination Emax [1] | combination Emax [2] | combination Emax [3] | combination Emax [4] | combination Emax [5] | combination Emax [6] | combination Emax [7] | combination Emax [8] | combination Emax [9] | combination Emax [10] | combination Emax [11] | combination Emax [12] | combination Emax [13] | combination Emax [14] | combination Emax [15] | combination Emax [16] | combination Emax [17] | combination Emax [18] | combination Emax [19] |
| --- | --- | --- | --- | --- | --- | --- | --- | --- | --- | --- | --- | --- | --- | --- | --- | --- | --- | --- | --- |
| C=CCn1c(=O)c2cnc(Nc3ccc(N4CCN(C)CC4)cc3)nc2n1-c1cccc(C(C)(C)O)n1 [AZD1775] + C[C@@H]1COCCN1C2=NC(=NC(=C2)C3(CC3)[S@](=N)(=O)C)C4=C5C=CNC5=NC=C4 [AZD6738] (first compound max 1 µM, partner max 10 µM) | 0.922 | 0.848 | 0.888 | 0.449 | 0.54 | 0.937 | 0.642 | 0.756 | 0.571 | 0.978 | 0.439 | 0.804 | 0.806 | 0.832 | 0.971 | 0.811 | 0.952 | 0.871 | 0.694 |
| COc1cc2c(cc1OCCCCCOc1cc3c(cc1OC)C(=O)N1C=C(C)C[C@H]1C=N3)N=C[C@@H]1CC(C)=CN1C2=O [SG3199] + O=C(c1cc(Cc2n[nH]c(=O)c3ccccc23)ccc1F)N1CCN(C(=O)C2CC2)CC1 [Olaparib] (first compound max 0.001 µM, 7x7, partner max 10 µM) | 0.3 | 0.0979 | 0.522 | 0.181 | 0.175 | 0.319 | 0.108 | 0.183 | 0.169 | 0.201 | 0.107 | 0.634 | 0.125 | 0.116 | 0.498 | 0.247 | 0.528 | 0.256 | 0.0928 |
| C=CCn1c(=O)c2cnc(Nc3ccc(N4CCN(C)CC4)cc3)nc2n1-c1cccc(C(C)(C)O)n1 [AZD1775] + O=C(c1cc(Cc2n[nH]c(=O)c3ccccc23)ccc1F)N1CCN(C(=O)C2CC2)CC1 [Olaparib] (first compound max 1 µM, partner max 10 µM) | 0.794 | 0.262 | 0.771 | 0.35 | 0.383 | 0.906 | 0.293 | 0.493 | 0.269 | 0.694 | 0.389 | 0.661 | 0.711 | 0.63 | 0.983 | 0.804 | 0.92 | 0.666 | 0.325 |
| Cc1cc2ncnn2cc1Nc1ncc2c(n1)n(C1CCOCC1)c(=O)n2C [AZD7648] + C[C@@H]1COCCN1C2=NC(=NC(=C2)C3(CC3)[S@](=N)(=O)C)C4=C5C=CNC5=NC=C4 [AZD6738] (first compound max 10 µM, 7x7, partner max 10 µM) | 0.861 | 0.509 | 0.889 | 0.401 | 0.295 | 0.863 | 0.369 | 0.561 | 0.513 | 0.885 | 0.31 | 0.755 | 0.718 | 0.596 | 0.616 | 0.782 | 0.937 | 0.944 | 0.592 |
| COc1cccc(OCCCN)c1-c1cc(Nc2cnc(C#N)cn2)n[nH]1 [Prexasertib] + C[C@@H]1COCCN1C2=NC(=NC(=C2)C3(CC3)[S@](=N)(=O)C)C4=C5C=CNC5=NC=C4 [AZD6738] (first compound max 1 µM, 7x7, partner max 10 µM) | 0.977 | 0.705 | 0.913 | 0.458 | 0.461 | 0.925 | 0.4 | 0.621 | 0.497 | 0.942 | 0.363 | 0.819 | 0.718 | 0.741 | 1 | 0.836 | 0.984 | 0.994 | 0.669 |
| COc1cccc(OCCCN)c1-c1cc(Nc2cnc(C#N)cn2)n[nH]1 [Prexasertib] + Cc1cc2ncnn2cc1Nc1ncc2c(n1)n(C1CCOCC1)c(=O)n2C [AZD7648] (first compound max 1 µM, 7x7, partner max 10 µM) | 0.96 | 0.648 | 0.908 | 0.39 | 0.44 | 0.908 | 0.458 | 0.513 | 0.538 | 0.923 | 0.36 | 0.736 | 0.776 | 0.778 | 1 | 0.836 | 0.97 | 0.979 | 0.668 |
| COc1cccc2c1C(=O)c1c(O)c3c(c(O)c1C2=O)C[C@@](O)(C(=O)CO)C[C@@H]3O[C@H]1C[C@H](N)[C@H](O)[C@H](C)O1 [Doxorubicin] + Cc1cc2ncnn2cc1Nc1ncc2c(n1)n(C1CCOCC1)c(=O)n2C [AZD7648] (first compound max 1 µM, 7x7, partner max 10 µM) | 0.203 | 0.912 | 0.816 | 0.253 | 0.782 | 0.944 | 0.411 | 0.958 | 0.829 | 0.882 | 0.527 | 0.788 | 0.726 | 0.89 | 0.975 | 0.814 | 1 | 0.792 | 0.255 |
| CCN(CCO)CCCOc1ccc2c(Nc3cc(CC(=O)Nc4cccc(F)c4)[nH]n3)ncnc2c1 [AZD2811] + O=C(c1cc(Cc2n[nH]c(=O)c3ccccc23)ccc1F)N1CCN(C(=O)C2CC2)CC1 [Olaparib] (first compound max 1 µM, 7x7, partner max 10 µM) | 0.408 | 0.249 | 0.654 | 0.186 | 0.332 | 0.659 | 0.218 | 0.515 | 0.31 | 0.307 | 0.0855 | 0.675 | 0.293 | 0.439 | 0.681 | 0.381 | 0.854 | 0.182 | 0.152 |
| COc1cccc(OCCCN)c1-c1cc(Nc2cnc(C#N)cn2)n[nH]1 [Prexasertib] + C=CCn1c(=O)c2cnc(Nc3ccc(N4CCN(C)CC4)cc3)nc2n1-c1cccc(C(C)(C)O)n1 [AZD1775] (first compound max 1 µM, partner max 1 µM) | 0.991 | 0.848 | 0.905 | 0.481 | 0.716 | 0.944 | 0.765 | 0.866 | 0.608 | 0.995 | 0.505 | 0.732 | 0.797 | 0.882 | 1 | 0.858 | 0.983 | 0.974 | 0.713 |
| Cc1cc2ncnn2cc1Nc1ncc2c(n1)n(C1CCOCC1)c(=O)n2C [AZD7648] + C=CCn1c(=O)c2cnc(Nc3ccc(N4CCN(C)CC4)cc3)nc2n1-c1cccc(C(C)(C)O)n1 [AZD1775] (first compound max 10 µM, partner max 1 µM) | 0.825 | 0.324 | 0.783 | 0.359 | 0.466 | 0.848 | 0.392 | 0.643 | 0.392 | 0.833 | 0.431 | 0.329 | 0.731 | 0.596 | 0.992 | 0.749 | 0.898 | 0.923 | 0.308 |
| CN(C)CCCOc1ccc(-c2ccc3ncc4c(c3c2)n(C2CCOCC2)c(=O)n4C)cn1 [AZD0156] + C[C@@H]1COCCN1C2=NC(=NC(=C2)C3(CC3)[S@](=N)(=O)C)C4=C5C=CNC5=NC=C4 [AZD6738] (first compound max 1 µM, 7x7, partner max 10 µM) | 0.799 | 0.719 | 0.913 | 0.346 | 0.236 | 0.901 | 0.32 | 0.589 | 0.676 | 0.939 | 0.315 | 0.751 | 0.704 | 0.696 | 0.77 | 0.869 | 0.908 | 0.922 | 0.58 |
| C[C@@H]1COCCN1c1cc(C2([S@](C)(=N)=O)CC2)nc(-c2ccnc3[nH]ccc23)n1 [AZD6738] + O=C(c1cc(Cc2n[nH]c(=O)c3ccccc23)ccc1F)N1CCN(C(=O)C2CC2)CC1 [Olaparib] (first compound max 10 µM, 7x7, partner max 10 µM) | 0.796 | 0.652 | 0.808 | 0.385 | 0.236 | 0.867 | 0.339 | 0.567 | 0.446 | 0.835 | 0.362 | 0.962 | 0.693 | 0.721 | 0.76 | 0.767 | 0.952 | 0.697 | 0.531 |
| CCN(CCO)CCCOc1ccc2c(Nc3cc(CC(=O)Nc4cccc(F)c4)[nH]n3)ncnc2c1 [AZD2811] + C=CCn1c(=O)c2cnc(Nc3ccc(N4CCN(C)CC4)cc3)nc2n1-c1cccc(C(C)(C)O)n1 [AZD1775] (first compound max 1 µM, partner max 1 µM) | 0.818 | 0.103 | 0.883 | 0.32 | 0.383 | 0.877 | 0.162 | 0.533 | 0.223 | 0.776 | 0.368 | 0.402 | 0.66 | 0.43 | 0.983 | 0.765 | 0.896 | 0.801 | 0.178 |
| CS(=O)(=O)CCNCc1ccc(-c2ccc3ncnc(Nc4ccc(OCc5cccc(F)c5)c(Cl)c4)c3c2)o1 [Lapatinib] + NC1(c2ccc(-c3nc4ccn5c(=O)[nH]nc5c4cc3-c3ccccc3)cc2)CCC1 [MK-2206] (first compound max 10 µM, 7x7, partner max 10 µM) | 0.418 | 0.956 | – | 0.188 | – | – | 0.754 | 0.954 | – | – | 0.386 | 0.87 | 0.977 | 0.987 | – | 0.837 | 0.954 | – | 0.723 |

Reference: the supplement of paper PMC11061612
